Assay results taken from patent US20250215029A1 (Recludix Pharma, Inc., priority 2022, published 2025).

molecular target: T1, pY705-STAT3 in PBMC (Homo sapiens, UniProt P40763); assay: MSD-pSTAT-PBMC Assay (pSTAT3, IL-6 stimulated); type: cell-based; conditions: PBMC, compound 3 hrs, then 10 ng/mL IL-6 for 10 min; Table 115; read-out: STAT3
T1 construct: Cryopreserved Peripheral Blood Mononuclear Cells (PBMC) are from AllCells; host or cells: cryopreserved PBMC
Source text: Cryopreserved Peripheral Blood Mononuclear Cells (PBMC) are from AllCells. Recombinant Human IL-4 and IL-6 are from Peprotech. Mouse monoclonal anti-STAT3 antibody, rabbit monoclonal anti-pY705-STAT3 antibody, rabbit monoclonal Anti-pY641-STAT6 antibody, and lysis buffer are from Cell Signaling Technology (CST). Mouse monoclonal anti-STAT6 antibody is from BioLegend. Assay plates, blocker, and anti-rabbit secondary antibody are from Meso Scale Discovery (MSD).
Cyropreserved PBMCs were thawed out and allowed to recover overnight in IMDM+10% heat-inactivated FBS prior to plating 50,000 (STAT3) or 25,000 (STAT6) cells per well in 96-well U-bottom tissue culture plates. Cells were treated with compound for 3 hrs, then stimulated with 10 ng/mL IL-6 (STAT3) or 1 ng/mL IL-4 (STAT6) for 10 min. Cells were then spun down and washed with ice-cold PBS prior to lysing the cell pellet with 1× lysis buffer (CST) with 1× HALT protease and phosphatase inhibitor cocktail (Thermo). Lysates were transferred to and incubated overnight at 4° C. with shaking in QuickPlex 96-well high bind assay plates (MSD) pre-coated overnight with 30 μL per well of 0.6 μg/mL mouse monoclonal anti-STAT3 antibody (STAT3) or 2 μg/mL mouse monoclonal anti-STAT6 antibody (STAT6) in 1× PBS, and pre-blocked for 1 hour with 3% Blocker-A (MSD). Captured protein in the assay plates were then washed and probed with 25 μL per well of […] rabbit monoclonal anti-pY705-STAT3 antibody (STAT3) or 0.18 μg/ml rabbit monoclonal Anti-pY641-STAT6 antibody (STAT6) in 1% Blocker-A for 1 hour at room temperature with shaking, then washed and probed with 25 ul per well of 1 ug/ml Sulfo-TAG Labeled Goat Anti-Rabbit Antibody (MSD) in 1% Blocker-A for 1 hour at room temperature with shaking. Assay plates were then washed and 150 μL of 1× Read Buffer-T (MSD) was added to each well prior to reading on an SQ120 MSD Plate Reader. Assay signal from each sample was subtracted by the signal from unstimulated control wells and normalized to DMSO control wells. IC50 values were calculated using Graph Pad Prism Dose-Response Nonlinear Regression with variable slope. For both pSTAT3 and pSTAT6 A=≤100 nM; B 100-1000 nM; C=>1000-3000 nM; D=>3 μM; and NT=Not Tested.

T1 sequence (P40763 whole entry): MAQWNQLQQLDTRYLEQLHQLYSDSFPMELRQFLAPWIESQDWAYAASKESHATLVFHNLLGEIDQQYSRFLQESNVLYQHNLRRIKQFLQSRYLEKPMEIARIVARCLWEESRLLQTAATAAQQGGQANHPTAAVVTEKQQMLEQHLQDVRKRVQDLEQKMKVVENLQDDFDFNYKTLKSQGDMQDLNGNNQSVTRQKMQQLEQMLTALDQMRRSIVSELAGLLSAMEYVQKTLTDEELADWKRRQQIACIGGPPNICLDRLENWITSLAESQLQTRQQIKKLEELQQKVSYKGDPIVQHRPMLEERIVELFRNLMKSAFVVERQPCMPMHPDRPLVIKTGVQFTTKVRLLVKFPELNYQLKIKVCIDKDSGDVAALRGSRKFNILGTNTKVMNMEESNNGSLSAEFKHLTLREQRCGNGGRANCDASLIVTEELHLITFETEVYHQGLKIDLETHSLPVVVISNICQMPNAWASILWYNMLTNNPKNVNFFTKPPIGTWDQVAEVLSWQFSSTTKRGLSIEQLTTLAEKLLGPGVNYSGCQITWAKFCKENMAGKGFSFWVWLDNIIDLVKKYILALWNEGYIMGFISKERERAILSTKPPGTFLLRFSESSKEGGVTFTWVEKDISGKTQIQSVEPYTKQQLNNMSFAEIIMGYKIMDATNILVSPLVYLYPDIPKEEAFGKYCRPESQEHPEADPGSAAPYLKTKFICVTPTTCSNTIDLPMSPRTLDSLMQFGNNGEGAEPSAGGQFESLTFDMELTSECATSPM

| Compound | IC50 |
| --- | --- |
| CCCOC(=O)[C@H](C)NP(=O)(Oc1ccccc1)C(F)c1ccc2sc(C(=O)N[C@H]3CCCC[C@H]4CC[C@@H](C(=O)N5CC(OCC(F)F)(c6cccnc6)C5)N4C3=O)cc2c1 (stereo partly drawn) [Compound 950, propyl (((2-(((3S,6S,10aS)-3-(3-(2,2-difluoroethoxy)-3-(pyridin-3-yl)azetidine-1-carbonyl)-5-oxodeca-hydropyrrolo [1,2-a]azocin-6-yl)carbamoyl)benzo [b]thiophen-5-yl)fluoromethyl) (phenoxy)phosphoryl)-L-alaninate] | < 100 nM |
| CC(C)OC(=O)[C@H](C)NP(=O)(Oc1ccccc1)C(F)(F)c1ccc2sc(C(=O)N[C@H]3CCC[C@H]4CC[C@@H](C(=O)N5CC(c6cccnc6)C5)N4C3=O)cc2c1 (stereo partly drawn) [Compound 248, isopropyl ((difluoro(2-(((3S,6S,9aS)-5-oxo-3-(3-(pyridin-3-yl)azetidine-1-carbonyl)octahydro-1H-pyrrolo[1,2-a]azepin-6-yl)carbamoyl)benzo [b]thiophen-5-yl)methyl)(phenoxy)phosphoryl)-L-alaninate] | > 3000 nM |
| CCCOC(=O)[C@H](C)NP(=O)(Oc1ccccc1)C(F)c1ccc2sc(C(=O)N[C@H]3CCC[C@H]4CC[C@@H](C(=O)N5CC(c6cn(C)ccc6=O)C5)N4C3=O)cc2c1 (stereo partly drawn) [Compound 985, propyl ((fluoro(2-(((3S,6S,9aS)-3-(3-(1-methyl-4-oxo-1,4-dihydropyridin-3-yl)azetidine-1-carbonyl)-5-oxooctahydro-1H-pyrrolo[1,2-a]azepin-6-yl)carbamoyl)benzo [b]thiophen-5-yl)methyl)(phenoxy)phosphoryl)-L-alaninate] | > 3000 nM |
| COc1ccncc1C1CN(C(=O)[C@@H]2CC[C@@H]3CCC[C@H](NC(=O)c4cc5cc([C@H](F)[P@@](=O)(N[C@@H](C)C(=O)OCC(C)(C)C)Oc6ccccc6)ccc5s4)C(=O)N32)C1 (single isomer, unassigned) [Compound 959] | < 100 nM |
| CCCOC(=O)[C@H](C)NP(=O)(Oc1ccccc1)C(F)c1ccc2sc(C(=O)N[C@H]3CCC[C@H]4CC[C@@H](C(=O)N5CC(c6cnccc6C#N)C5)N4C3=O)cc2c1 (stereo partly drawn) [Compound 273, propyl (((2-(((3S,6S,9aS)-3-(3-(4-cyanopyridin-3-yl)azetidine-1-carbonyl)-5-oxooctahydro-1H-pyrrolo[1,2-a]azepin-6-yl)carbamoyl)benzo [b]thiophen-5-yl)fluoromethyl) (phenoxy)phosphoryl)-L-alaninate] | 100 to 1000 nM |
| C[C@H](NP(=O)(Cc1ccc2sc(C(=O)N[C@H]3CCC[C@H]4CC[C@@H](C(=O)N5CC(c6cccnc6)C5)N4C3=O)cc2c1)Oc1ccccc1)C(=O)OCc1ccccc1 (stereo partly drawn) [Compound 394, benzyl (((2-(((3S,6S,9aS)-5-oxo-3-(3-(pyridin-3-yl)azetidine-1-carbonyl)octahydro-1H-pyrrolo[1,2-a]azepin-6-yl)carbamoyl)benzo [b]thiophen-5-yl)methyl)(phenoxy)phosphoryl)-L-alaninate] | < 100 nM |
| CCCCOC(=O)[C@H](C)N(C)P(=O)(Oc1ccccc1)C(F)(F)c1ccc2sc(C(=O)N[C@H]3CCC[C@H]4CC[C@@H](C(=O)N5CC(c6cccnc6)C5)N4C3=O)cc2c1 (stereo partly drawn) [Compound 285, butyl N-((difluoro(2-(((3S,6S,9aS)-5-oxo-3-(3-(pyridin-3-yl)azetidine-1-carbonyl)octahydro-1H-pyrrolo[1,2-a]azepin-6-yl)carbamoyl)benzo [b]thiophen-5-yl)methyl)(phenoxy)phosphoryl)-N-methyl-L-alaninate] | > 3000 nM |
| CCCOC(=O)[C@H](C)N[P@@](=O)(Oc1ccccc1)[C@@H](F)c1ccc2sc(C(=O)N[C@H]3C[C@H](C)C[C@H]4CC[C@@H](C(=O)N5CC(c6cnccc6OC)C5)N4C3=O)cc2c1 (single isomer, unassigned) [Compound 1041] | < 100 nM |
| CCCOC(=O)[C@H](C)NP(=O)(Oc1ccccc1)[C@@H](F)c1ccc2sc(C(=O)N[C@H]3CC[C@@H](CC)C[C@H]4CC[C@@H](C(=O)N5CC(c6cnccc6N6CCC6)C5)N4C3=O)cc2c1 (stereo partly drawn) [Compound 493, propyl (((R)-(2-(((3S,6S,9R,10aR)-3-(3-(4-(azetidin-1-yl)pyridin-3-yl)azetidine-1-carbonyl)-9-ethyl-5-oxodecahydropyrrolo [1,2-a]azocin-6-yl)carbamoyl)benzo [b]thiophen-5-yl)fluoromethyl) (phenoxy)phosphoryl)-L-alaninate] | < 100 nM |
| CCCOC(=O)[C@H](C)N[P@](=O)(Oc1ccccc1)[C@@H](F)c1ccc2sc(C(=O)N[C@H]3CCC[C@H]4CC[C@@H](C(=O)N5CC(c6cnccc6C)C5)N4C3=O)cc2c1 (single isomer, unassigned) [Compound 1035] | < 100 nM |
| CCCOC(=O)[C@H](C)NP(=O)(Oc1ccccc1)C(F)c1ccc2sc(C(=O)N[C@H]3CCC[C@H]4CC[C@@H](C(=O)N5CC6(C5)OCc5ccncc56)N4C3=O)cc2c1 (stereo partly drawn) [Compound 952, propyl ((fluoro(2-(((3S,6S,9aS)-5-oxo-3-(1′H-spiro [azetidine-3,3′-furo[3,4-c]pyridine]-1-carbonyl)octahydro-1H-pyrrolo[1,2-a]azepin-6-yl)carbamoyl)benzo [b]thiophen-5-yl)methyl) (phenoxy)phosphoryl)-L-alaninate] | 100 to 1000 nM |
| CCCOC(=O)[C@H](C)NP(=O)(Oc1ccccc1)[C@@H](F)c1ccc2sc(C(=O)N[C@H]3CCC[C@H]4CC[C@@H](C(=O)N5CC(c6cncnc6N6CC[C@H]6COC)C5)N4C3=O)cc2c1 (stereo partly drawn) [Compound 1071, propyl (((R)-fluoro(2-(((3S,6S,9aS)-3-(3-(4-((S)-2-(methoxymethyl)azetidin-1-yl)pyrimidin-5-yl)azetidine-1-carbonyl)-5-oxooctahydro-1H-pyrrolo[1,2-a]azepin-6-yl)carbamoyl)benzo [b]thiophen-5-yl)methyl)(phenoxy)phosphoryl)-L-alaninate] | < 100 nM |
| CCCOC(=O)[C@H](C)N[P@@](=O)(Oc1ccccc1)[C@@H](F)c1ccc2sc(C(=O)N[C@H]3C[C@H](C)C[C@H]4CC[C@@H](C(=O)N5CC(c6cnccc6OC)C5)N4C3=O)cc2c1 (single isomer, unassigned) [Compound 1040] | < 100 nM |
| Cc1ccncc1C1CN(C(=O)[C@@H]2CC[C@@H]3CCC[C@H](NC(=O)c4cc5cc(C(F)(F)P(=O)(OCCSC(=O)C(C)(C)C)OCCSC(=O)C(C)(C)C)ccc5s4)C(=O)N32)C1 [Compound 968, S,S′-((((difluoro(2-(((3S,6S,9aS)-3-(3-(4-methylpyridin-3-yl)azetidine-1-carbonyl)-5-oxooctahydro-1H-pyrrolo[1,2-a]azepin-6-yl)carbamoyl)benzo [b]thiophen-5-yl)methyl)phosphoryl)bis(oxy))bis(ethane-2,1-diyl))bis(2,2-dimethyl-propanethioate)] | < 100 nM |
| CCCOC(=O)[C@H](C)NP(=O)(Cc1ccc2sc(C(=O)N[C@H]3CCC[C@H]4CC[C@@H](C(=O)N5CC(c6cnccc6OC(F)F)C5)N4C3=O)cc2c1)Oc1ccccc1 (stereo partly drawn) [Compound 996, propyl (((2-(((3S,6S,9aS)-3-(3-(4-(difluoromethoxy)pyridin-3-yl)azetidine-1-carbonyl)-5-oxooctahydro-1H-pyrrolo[1,2-a]azepin-6-yl)carbamoyl)benzo [b]thiophen-5-yl)methyl)(phenoxy) )phosphoryl)-L-alaninate] | 100 to 1000 nM |
| CCCOC(=O)[C@H](C)NP(=O)(Cc1ccc2sc(C(=O)N[C@H]3CCC[C@H]4CC[C@@H](C(=O)N5CC(c6cnccc6C)C5)N4C3=O)cc2c1)Oc1ccccc1 (stereo partly drawn) [Compound 951, propyl (((2-(((3S,6S,9aS)-3-(3-(4-methylpyridin-3-yl)azetidine-1-carbonyl)-5-oxooctahydro-1H-pyrrolo[1,2-a]azepin-6-yl)carbamoyl)benzo [b]thiophen-5-yl)methyl) (phenoxy)phosphoryl)-L-alaninate] | < 100 nM |

same assay, conditions: STAT3, PBMC, compound 3 hrs, then 10 ng/mL IL-6 for 10 min; Table 115

| Compound | IC50 |
| --- | --- |
| CCCOC(=O)[C@H](C)NP(=O)(Cc1ccc2sc(C(=O)N[C@H]3CCC[C@H]4CC[C@@H](C(=O)N5CC(c6cnc(C(F)F)cc6OC)C5)N4C3=O)cc2c1)Oc1ccccc1 (stereo partly drawn) [Compound 991, propyl (((2-(((3S,6S,9aS)-3-(3-(6-(difluoromethyl)-4-methoxypyridin-3-yl)azetidine-1-carbonyl)-5-oxooctahydro-1H-pyrrolo[1,2-a]azepin-6-yl)carbamoyl)benzo [b]thiophen-5-yl)methyl)(phenoxy)phosphoryl)-L-alaninate] | > 3000 nM |
